Measured values: paper PMC10458458, “Characterization of Anticancer Effects of the Analogs of DJ4, a Novel Selective Inhibitor of ROCK and MRCK Kinases” (Pharmaceuticals, 2023)

Columns and labels:
[1] = test system: MDA-MB-231 breast cancer cells; assay: Live/dead cell count (Muse); assay type: cell-based, human; details: 24 h
Protocol: Figure 2 DJ4 reduces cell survival and inhibits colony forming ability of the cancer cells. (A) Different NSCLC cells were plated in a 96-well plate to confluence and then treated for 72 h. Cytotoxicity was assessed by MTT assay. The error bars indicate SEM of triplicates. (B) To assess cytotoxicity of DJ4 in breast cancer cells, MDA-MB-231 cells were treated for 24 h with indicated concentrations of DJ4. Percentage of live cells were counted using Muse^TM Live/Dead reagent and analyzed by Muse^TM cell analyzer. Error bars indicate SEM. n = 2. * p < 0.05. (C) DJ4 inhibits colony forming ability of A549 cells treated for 48 h. After a 48-h treatment, cells were seeded with number of cells mentioned in the table and were allowed to grow and form colonies. At the end of 14 days, colonies were stained and counted. Percent surviving fraction was calculated. The figure is the representative of the replicates. (D) The data are summarized in the table and represent the average of three replicates. […]
MDA-MB-231 cells were treated for 24 h with 1 µM, 2.5 µM, 5 µM, and 10 µM concentrations of DJ4. […] Cell number and cell viability were analyzed using Muse^TM Cell Viability reagent and Muse^TM (Millipore, Inc. Burlington, MA, USA) cell analyzer as per the manufacturer’s instructions.

A549 lung cancer cells = assay: Cell cycle analysis (propidium iodide, flow cytometry); assay type: cell-based, human; details: A549, serum-starved, 24 h (vehicle 1%)
Protocol: Since DJ4 inhibits phosphorylation of MLC, we hypothesized that DJ4-treated cells are unable to complete cell division and arrest in G2/M phase of the cell cycle. To test this hypothesis, A549 lung cancer cells were synchronized in the G1 phase by serum-starvation for 24 h. After serum replenishment, cells were further treated with 2.5 µM, 5 µM, and 10 µM DJ-4 for 16-, 24-, and 48 h (Figure 3A). Before treatment with DJ4 (time zero), about 80% of cells were in the G1 phase, 20% in the G2/M phase, and essentially none in the S phase. In vehicle treated control cells, there were minimal cells in the G2/M phase at both 24 h (1%) and 48 h (8%). […] At 48 h, cells remained arrested in the G2/M phase, but also, there was an increase in the sub-G1 cell population indicating apoptotic cells.
Figure 3 DJ4 arrests A549 lung cancer cells in G2/M phase and induces apoptotic cell death in NSCLC and breast cancer cells. (A). A549 cells were serum-starved for 24 h and treated for 16 h, 24 h, and 48 h with indicated concentrations. Propidium iodide stained cells were analyzed for DNA content by flow cytometry. The cell cycle graphs indicate distribution of cells in the G1, S, and G2/M phases of cell cycle. Sub-G1 cell population indicates apoptotic cells. (B). Annexin V staining of A549 cells. The cells were treated with indicated concentrations and durations. Percent annexin V + cells were analyzed using Muse^TM cell analyzer. Error bars indicate SEM. n = 2. (C). Analysis of annexin V + ve and mitochondrial membrane depolarized cells. MDA-MB-231 cells were treated for 48 h at the indicated concentrations. Staurosporin (2.5 µM) was used as a positive control. Error bars indicate SEM. n = 2. * p < 0.05. […] These are best readings and their digits are not certain: DMSO 7 and 14; DJ4 1.25 μM 10 and 22; DJ4 2.5 μM 23 and 40; Staurosporin 12 and 40 / Panel B, 24 h: the ** is read as belonging to the 5 μM bar (10), not the 2.5 μM bar (8); this is not fully certain […]

SMILES: O=C1N/C(=N\CCc2ccccc2)S/C1=C/c1c[nH]c2ncccc12 [DJ4]
- cell death ([1]; MDA-MB-231, 1 µM): 29%
- cell death ([1]; MDA-MB-231, 10 µM): 47%
- G2/M cell population (A549 lung cancer cells; 2.5 µM): 31%
- G2/M cell population (A549 lung cancer cells; 5 µM): 42%
- G2/M cell population (A549 lung cancer cells; 10 µM): 45%
